Patent US20230257396A1, “MACROCYCLES AND THEIR USE” (BLOSSOMHILL THERAPEUTICS, INC., priority 2020, published 2023)

Assays:
Assay in all cases: KINOMEscan kinase binding assay (Eurofins/DiscoveRx), % Ctrl
Conditions in all cases: 1 μM
kinases [1] = target: T1, kinases (Homo sapiens, UniProt P00519, M351T)
T1 construct: purchased Eurofins/DiscoveRx; host or cells: E. coli BL21-derived host (T7 phage display) for most kinases; HEK-293 for the rest
Protocol: (§1) Kinase binding assays were performed at Eurofins/DiscoveRx using the general KINOMEscan Protocol (Fabian, M. A. et al., “A small molecule-kinase interaction map for clinical kinase inhibitors,” Nat. Biotechnol. 2005, 23(3):329-36). For most assays, kinase-tagged T7 phage strains were prepared in an E. coli host derived from the BL21 strain. E. coli were grown to log-phase and infected with T7 phage and incubated with shaking at 32° C. until lysis. The lysates were centrifuged and filtered to remove cell debris. The remaining kinases were produced in HEK-293 cells and subsequently tagged with DNA for qPCR detection. Streptavidin-coated magnetic beads were treated with biotinylated small molecule ligands for 30 minutes at room temperature to generate affinity resins for kinase assays. The liganded beads were blocked with excess biotin and washed with blocking buffer (SeaBlock (Pierce), 1% BSA, 0.05% Tween 20, 1 mM DTT) to remove unbound ligand and to reduce nonspecific binding. Binding reactions were assembled by combining kinases, liganded affinity beads, and test compounds in 1×binding buffer (20% SeaBlock, 0.17×PBS, 0.05% Tween 20, 6 mM DTT). All reactions were performed in polystyrene 96-well plates in a final volume of 0.135 mL. The assay plates were incubated at room temperature with shaking for 1 hour and the affinity beads were washed with washbuffer (1×PBS, 0.05% Tween 20). The beads were then re-suspended in elution buffer (1× PBS, 0.05% Tween 20, 0.5 μM non-biotinylated affinity ligand) and incubated at room temperature with shaking for 30 minutes. The kinase concentration in the eluates was measured by qPCR. Results for compounds tested in this assay at a given concentration are reported as “% Ctrl”, where lower numbers indicate stronger binding in the matrix.
(§2) (test compound signal-positive control signal)/(negative control signal-positive control signal) X100

kinases [2] = target: T2, kinases (Homo sapiens, UniProt P00519, Q252H)
T2 construct: purchased Eurofins/DiscoveRx; host or cells: E. coli BL21-derived host (T7 phage display) for most kinases; HEK-293 for the rest
Protocol: as §1, §2

kinases [3] = target: T3, kinases (Homo sapiens, UniProt P00533)
T3 construct: purchased Eurofins/DiscoveRx; host or cells: E. coli BL21-derived host (T7 phage display) for most kinases; HEK-293 for the rest
Protocol: as §1, §2

kinases [4] = target: T4, kinases (Homo sapiens, UniProt P00533, DEL746-750)
T4 construct: purchased Eurofins/DiscoveRx; host or cells: E. coli BL21-derived host (T7 phage display) for most kinases; HEK-293 for the rest
Protocol: as §1, §2

kinases [5] = target: T5, kinases (Homo sapiens, UniProt P07949, V804M)
T5 construct: purchased Eurofins/DiscoveRx; host or cells: E. coli BL21-derived host (T7 phage display) for most kinases; HEK-293 for the rest
T5 sequence (P07949 29-1114 V804M): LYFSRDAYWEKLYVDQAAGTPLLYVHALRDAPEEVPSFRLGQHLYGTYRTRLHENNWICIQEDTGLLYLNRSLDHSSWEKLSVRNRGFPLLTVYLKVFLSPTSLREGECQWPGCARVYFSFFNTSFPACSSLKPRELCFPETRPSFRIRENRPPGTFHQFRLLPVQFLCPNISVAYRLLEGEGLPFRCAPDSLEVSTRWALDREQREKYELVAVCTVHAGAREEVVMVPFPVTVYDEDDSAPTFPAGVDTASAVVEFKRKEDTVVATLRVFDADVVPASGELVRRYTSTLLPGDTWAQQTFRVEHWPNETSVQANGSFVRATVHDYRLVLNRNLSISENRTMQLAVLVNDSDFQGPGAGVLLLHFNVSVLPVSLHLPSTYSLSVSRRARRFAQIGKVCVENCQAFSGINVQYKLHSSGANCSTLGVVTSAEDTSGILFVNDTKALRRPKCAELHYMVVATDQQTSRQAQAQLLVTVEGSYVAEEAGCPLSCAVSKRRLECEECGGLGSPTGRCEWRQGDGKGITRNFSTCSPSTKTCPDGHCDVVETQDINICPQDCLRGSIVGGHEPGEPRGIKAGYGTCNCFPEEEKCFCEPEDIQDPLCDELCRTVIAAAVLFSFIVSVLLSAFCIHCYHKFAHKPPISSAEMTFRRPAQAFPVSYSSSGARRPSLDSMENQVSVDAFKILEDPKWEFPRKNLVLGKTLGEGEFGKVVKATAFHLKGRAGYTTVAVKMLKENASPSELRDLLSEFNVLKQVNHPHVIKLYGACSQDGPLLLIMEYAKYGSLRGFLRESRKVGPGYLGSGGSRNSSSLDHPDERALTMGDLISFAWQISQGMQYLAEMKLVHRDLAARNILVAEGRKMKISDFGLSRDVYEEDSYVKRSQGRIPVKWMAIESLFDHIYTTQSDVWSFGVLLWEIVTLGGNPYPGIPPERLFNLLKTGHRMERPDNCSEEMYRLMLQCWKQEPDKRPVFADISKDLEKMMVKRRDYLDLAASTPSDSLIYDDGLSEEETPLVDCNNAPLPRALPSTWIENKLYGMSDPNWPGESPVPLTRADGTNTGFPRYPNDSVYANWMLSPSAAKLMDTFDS
Protocol: as §1, §2

kinases [6] = target: T6, kinases (Homo sapiens, UniProt P10721, A829P)
T6 construct: purchased Eurofins/DiscoveRx; host or cells: E. coli BL21-derived host (T7 phage display) for most kinases; HEK-293 for the rest
T6 sequence (P10721 26-976 A829P): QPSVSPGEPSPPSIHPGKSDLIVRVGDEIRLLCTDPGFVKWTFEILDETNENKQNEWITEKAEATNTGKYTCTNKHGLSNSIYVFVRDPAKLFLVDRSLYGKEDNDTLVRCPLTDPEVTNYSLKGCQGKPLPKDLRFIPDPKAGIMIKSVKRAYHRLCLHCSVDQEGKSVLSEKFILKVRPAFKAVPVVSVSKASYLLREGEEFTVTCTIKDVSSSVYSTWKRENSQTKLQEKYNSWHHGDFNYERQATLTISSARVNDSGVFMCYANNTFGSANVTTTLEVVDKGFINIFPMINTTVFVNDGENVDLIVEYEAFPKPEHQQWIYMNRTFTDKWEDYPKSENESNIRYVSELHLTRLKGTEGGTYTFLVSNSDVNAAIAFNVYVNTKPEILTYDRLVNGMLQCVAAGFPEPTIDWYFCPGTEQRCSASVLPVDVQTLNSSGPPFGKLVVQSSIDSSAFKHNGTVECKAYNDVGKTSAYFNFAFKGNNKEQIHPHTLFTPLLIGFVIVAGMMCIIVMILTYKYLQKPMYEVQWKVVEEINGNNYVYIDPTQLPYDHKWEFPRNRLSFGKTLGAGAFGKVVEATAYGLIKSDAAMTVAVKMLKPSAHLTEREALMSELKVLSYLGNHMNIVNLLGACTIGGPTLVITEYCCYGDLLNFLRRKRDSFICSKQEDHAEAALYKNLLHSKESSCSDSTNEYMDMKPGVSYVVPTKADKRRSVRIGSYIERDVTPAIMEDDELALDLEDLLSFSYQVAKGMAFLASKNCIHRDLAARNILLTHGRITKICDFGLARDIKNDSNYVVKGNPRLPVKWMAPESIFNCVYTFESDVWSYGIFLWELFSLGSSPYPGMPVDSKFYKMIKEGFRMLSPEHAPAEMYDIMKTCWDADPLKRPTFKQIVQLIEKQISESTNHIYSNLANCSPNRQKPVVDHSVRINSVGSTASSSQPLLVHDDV
Protocol: as §1, §2

kinases [7] = target: T7, kinases (Homo sapiens, UniProt P10721, T670I/V559D)
T7 construct: purchased Eurofins/DiscoveRx; host or cells: E. coli BL21-derived host (T7 phage display) for most kinases; HEK-293 for the rest
T7 sequence (P10721 26-976 V559D/T670I): as the sequence (P10721 26-976 A829P) above, with V534D, T645I, P804A counted along it
Protocol: as §1, §2

kinases [8] = target: T8, kinases (Homo sapiens, UniProt P10721, V559D/V654A)
T8 construct: purchased Eurofins/DiscoveRx; host or cells: E. coli BL21-derived host (T7 phage display) for most kinases; HEK-293 for the rest
T8 sequence (P10721 26-976 V559D/V654A): as the sequence (P10721 26-976 A829P) above, with V534D, V629A, P804A counted along it
Protocol: as §1, §2

kinases [9] = target: T9, kinases (Homo sapiens, UniProt P36888, D835V)
T9 construct: purchased Eurofins/DiscoveRx; host or cells: E. coli BL21-derived host (T7 phage display) for most kinases; HEK-293 for the rest
T9 sequence (P36888 27-993 D835V): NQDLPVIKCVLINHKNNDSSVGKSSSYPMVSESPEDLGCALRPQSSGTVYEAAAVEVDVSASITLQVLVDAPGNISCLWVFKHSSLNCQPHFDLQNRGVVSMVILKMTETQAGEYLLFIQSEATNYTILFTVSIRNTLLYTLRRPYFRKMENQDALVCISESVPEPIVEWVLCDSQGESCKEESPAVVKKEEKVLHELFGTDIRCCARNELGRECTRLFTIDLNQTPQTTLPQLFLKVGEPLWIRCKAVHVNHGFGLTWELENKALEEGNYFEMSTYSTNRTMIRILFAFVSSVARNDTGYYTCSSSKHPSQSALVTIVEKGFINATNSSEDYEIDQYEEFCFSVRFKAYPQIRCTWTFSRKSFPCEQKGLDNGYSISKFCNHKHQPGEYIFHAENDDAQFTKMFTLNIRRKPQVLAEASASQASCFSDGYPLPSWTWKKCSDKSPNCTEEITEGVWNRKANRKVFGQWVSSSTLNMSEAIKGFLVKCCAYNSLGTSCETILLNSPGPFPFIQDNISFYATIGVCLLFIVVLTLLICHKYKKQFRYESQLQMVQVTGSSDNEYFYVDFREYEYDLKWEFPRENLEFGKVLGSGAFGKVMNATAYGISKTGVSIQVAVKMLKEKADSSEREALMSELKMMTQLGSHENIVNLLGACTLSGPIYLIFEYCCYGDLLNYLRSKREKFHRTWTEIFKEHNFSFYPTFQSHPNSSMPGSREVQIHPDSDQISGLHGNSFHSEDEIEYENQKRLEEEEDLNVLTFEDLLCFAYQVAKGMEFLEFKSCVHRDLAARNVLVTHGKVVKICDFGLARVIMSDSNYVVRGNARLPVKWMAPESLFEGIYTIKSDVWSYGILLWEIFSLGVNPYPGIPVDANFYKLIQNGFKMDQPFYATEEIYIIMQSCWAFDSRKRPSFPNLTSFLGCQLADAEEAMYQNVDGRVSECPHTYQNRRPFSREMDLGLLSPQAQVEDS
Protocol: as §1, §2

kinases [10] = test system: kinases
Protocol: as §1, §2

SMILES | % Ctrl, ABL1(M351T)-phosphorylated (kinases [1]; ABL1(M351T)-phosphorylated) [% Ctrl] | % Ctrl, ABL1(Q252H)-nonphosphorylated (kinases [2]; ABL1(Q252H)-nonphosphorylated) [% Ctrl] | % Ctrl, ABL1(Q252H)-phosphorylated (kinases [2]; ABL1(Q252H)-phosphorylated) [% Ctrl] | % Ctrl, EGFR (kinases [3]; EGFR) [% Ctrl] | % Ctrl, EGFR(E746-A750del) (kinases [4]; EGFR(E746-A750del)) [% Ctrl] | % Ctrl, RET(V804M) (kinases [5]; RET(V804M)) [% Ctrl] | % Ctrl, KIT(A829P) (kinases [6]; KIT(A829P)) [% Ctrl] | % Ctrl, KIT(V559D, T670I) (kinases [7]; KIT(V559D, T670I)) [% Ctrl] | % Ctrl, KIT(V559D, V654A) (kinases [8]; KIT(V559D, V654A)) [% Ctrl] | % Ctrl, FLT3(D835V) (kinases [9]; FLT3(D835V)) [% Ctrl] | % Ctrl, EGFR(L747-E749del, A750P) (kinases [10]; EGFR(L747-E749del, A750P)) [% Ctrl] | % Ctrl, EGFR(L747-S752del, P753S) (kinases [10]; EGFR(L747-S752del, P753S)) [% Ctrl] | % Ctrl, EGFR(L747-T751del, Sins) (kinases [10]; EGFR(L747-T751del, Sins)) [% Ctrl] | % Ctrl, FLT3(ITD) (kinases [10]; FLT3(ITD)) [% Ctrl] | % Ctrl, FLT3(ITD, D835V) (kinases [10]; FLT3(ITD, D835V)) [% Ctrl] | % Ctrl, FLT3(ITD, F691L) (kinases [10]; FLT3(ITD, F691L)) [% Ctrl] | also measured
Cc1cc2c([nH]1)/C=C1\C(=O)Nc3ccc(cc31)-c1cnn(C)c1CN(C)CCN(C)C2=O [Ex. 126, [3a(4)Z]-6,9,12,14-tetramethyl-9,10,11,12,13,14-hexahydro-1,17-(ethanediylidene)pyrazolo[4,3-m]dipyrrolo[3,2-f:3′,4′-i][1,4]diazacyclopentadecine-3,8(2H,5H)-dione] | 0.05 | 1.7 | 0.75 | 23 | 3.9 | 0 | 0 | 3.6 | 0.4 | 0 | 1.8 | 14 | 27 | 0.4 | 0 | 2.5 | 
Cc1cc2c([nH]1)/C=C1\C(=O)Nc3ccc(cc31)-c1c(C)n[nH]c1CNCCN(C)C2=O [Ex. 127, [3a(4)Z]-6,9,16-trimethyl-9,10,11,12,13,14-hexahydro-1,17-(ethanediylidene)pyrazolo[4,3-m]dipyrrolo[3,2-f:3′,4′-i][1,4]diazacyclopentadecine-3,8(2H,5H)-dione] | 0.2 | 0 | 0.05 | 42 | 13 | 1.6 | 60 | 62 | 89 | 0.15 | 26 | 40 | 43 | 2.2 | 0 | 6.2 | 
Cc1cc2c([nH]1)/C=C1\C(=O)Nc3ccc(cc31)OCCOCCNC2=O [Ex. 129, [16a(17)Z]-2-methyl-6,7,9,10-tetrahydro-1H-12,14-(ethanediylidene)dipyrrolo[3,2-i:3′,4′-l][1,4,7]dioxazacyclopentadecine-4,16(5H,15H)-dione] | 83 | 87 | 86 | 98 | 100 | 94 | 100 | 100 | 98 | 17 | 88 | 98 | 85 | 32 | 4.3 | 40 | 
Cc1cc2c([nH]1)/C=C1\C(=O)Nc3ccc(cc31)-c1cnn(C)c1OCCCN(C)C2=O [Ex. 166, [3a(4)Z]-9,14-dimethyl-9,10,11,12-tetrahydro-14H-1,17-(ethanediylidene)pyrazolo[4,3-n]dipyrrolo[3,2-g:3′,4′-j][1,5]oxazacyclopentadecine-3,8(2H,5H)-dione] |  |  |  |  |  |  |  |  |  |  |  |  |  |  |  |  | % Ctrl, ABL1(M351T)-phosphorylated (kinases [1]; target ABL1(M351T)-phosphorylated): 3.1 % Ctrl; % Ctrl, ABL1(Q252H)-nonphosphorylated (kinases [2]; target ABL1(Q252H)-nonphosphorylated): 2.6 % Ctrl; % Ctrl, ABL1(Q252H)-phosphorylated (kinases [2]; target ABL1(Q252H)-phosphorylated): 3.8 % Ctrl; % Ctrl, EGFR (kinases [3]; target EGFR): 70 % Ctrl; % Ctrl, EGFR(E746-A750del) (kinases [4]; target EGFR(E746-A750del)): 84 % Ctrl; % Ctrl, RET(V804M) (kinases [5]; target RET(V804M)): 0.1 % Ctrl; % Ctrl, KIT(A829P) (kinases [6]; target KIT(A829P)): 28 % Ctrl; % Ctrl, KIT(V559D, T670I) (kinases [7]; target KIT(V559D, T670I)): 65 % Ctrl; % Ctrl, KIT(V559D, V654A) (kinases [8]; target KIT(V559D, V654A)): 43 % Ctrl; % Ctrl, FLT3(D835V) (kinases [9]; target FLT3(D835V)): 1.8 % Ctrl; % Ctrl, EGFR(L747-E749del, A750P) (kinases [10]; target EGFR(L747-E749del, A750P)): 62 % Ctrl; % Ctrl, EGFR(L747-S752del, P753S) (kinases [10]; target EGFR(L747-S752del, P753S)): 98 % Ctrl; % Ctrl, EGFR(L747-T751del, Sins) (kinases [10]; target EGFR(L747-T751del, Sins)): 90 % Ctrl; % Ctrl, FLT3(ITD) (kinases [10]; target FLT3(ITD)): 0.3 % Ctrl; % Ctrl, FLT3(ITD, D835V) (kinases [10]; target FLT3(ITD, D835V)): 0.6 % Ctrl; % Ctrl, FLT3(ITD, F691L) (kinases [10]; target FLT3(ITD, F691L)): 0 % Ctrl
Cc1cc2c([nH]1)/C=C1\C(=O)Nc3ccc(cc31)CN(C)C(=O)COCCNC2=O [Ex.111, [17a(18)Z]-2,11-dimethyl-6,7,11,12-tetrahydro-1H-13,15-(ethanediylidene)dipyrrolo[3,2-f:3′,4′-i][1,4,14]oxadiazacyclohexadecine-4,10,17(5H,9H,16H)-trione] | 98 | 75 | 57 | 74 | 92 | 51 | 100 | 96 | 62 | 1.5 | 83 | 100 | 59 | 6.9 | 0.45 | 5.8 | 
